Like-named read-outs stand apart in the source and are kept apart here.
What was measured:
[1] = test system: HIV-1 strain 92HT599; test: Antiviral activity: p24 estimation in MT2 cells infected with HIV-1; type: cell-based; conditions: for IC50: Human immunodeficiency virus 1, MT2; for inhibition at 0.01 µM / inhibition at 0.1 µM / inhibition at 1 µM: Human immunodeficiency virus 1, MT2 cells, HIV-1 92HT599, p24, ~96 hours
Method: MT2 cells were infected with HIV-1 strain 92HT599 (10 TCID 50/30000 cells). The infected cells were plated at the concentration of ˜30 000 cells per well in 96 well plate. Test compound was added to the micro plate in defined format with the final concentration of DMSO (vehicle) is not more than 1%. Incubation was carried out in CO2 incubator for ˜96 hours for viral infection. At the end of incubation period an aliquot from each well was taken for p24 estimation. The quantitation of p24 is an index for antiviral activity of the compound. Percent inhibition was calculated with reference to control values (vehicle controls). P-24 estimation was carried out using Advance biosciences kit as per the procedure detailed by supplier.

[2] = Single dose oral pharmacokinetic study; type: in vivo; conditions: mouse, plasma; Mice oral PK @30 mg/kg
Method: The test item was administered through oral route to animals (rat/mice) at 30 mg/kg dose in a suitable vehicle (10% Solutol+20% PEG) at 10 ml/kg dose volume. Blood samples (˜50 μL at each time point) were collected from retro-orbital plexus using K3 EDTA as anticoagulant in eppendorf tubes at defined time intervals 30 minutes, 1 hour, 2 hour, 4 hour, 8 hour, 24 hour & 48 hour under light ether anaesthesia. The samples were centrifuged at 3500×g to separate plasma and stored at −80° C. until analysis. Plasma […] for Mice were processed as per described in sample preparation.
Standard solutions of the test compound 1 mg/mL solutions were prepared in DMSO and further dilutions were made in methanol. The calibration curve samples for LCMSMS analysis were prepared by spiking 25 μl of Mice plasma with 2.5 μl and of the appropriate working standard solution to obtain final concentrations 0.078, 0.156, 0.312, 0.625, 1.25, 2.5, 5, 10, 20 & 40 µg/ml. To the test compound plasma extraction was carried out using Acetonitrile precipitation. After reconstitution with solvent (50% Acetonitrile in Buffer) samples were analyzed by LCMSMS to get the concentrations to calculate PK Parameters.

[3] = in vitro
Method: On day 1 calculate the number of cells required for the assay and seed 3×10^4 cells in 200 μl per well. Weigh the compound and dissolve it in DMSO to get 10 mM stock which is further diluted to 3 mM and 1 mM. The drugs from these stocks were added to plate to get final concentration of 100 μM, 30 μM and 10 μM. […] Incubate for 4 days in 5% CO2 incubator at 37° C. On day 4, 100 μl of medium was removed from each well without disturbing the cells. Add 10 μl of MTT reagent and incubate for 4 hours at 5% CO2 incubator at 37° C. for formation of crystals. Add 200 μl of 0.1N acidic isopropanol to dissolve the crystals and read the plate at 590 nm.

[4] = 0% serum, read-out: Antiviral activity IC50 (nM) 0%
[5] = read-out: Antiviral activity IC50 (nM) 40% serum

Compound	IC50 [1, 4] [nM]	IC50 [1, 5] [nM]	inhibition at 0.01 µM [1] [%]	inhibition at 0.1 µM [1] [%]	inhibition at 1 µM [1] [%]	AUC(0-t) [2] [µg·h/mL]	Cmax [2] [µg/mL]	viability at 4 days, 10 μM [3] [%]	viability at 4 days, 30 μM [3] [%]	viability at 4 days, 100 μM [3] [%]
CC(C)C1=C2[C@H]3CC[C@@H]4[C@@]5(C)CC[C@H](OC(=O)[C@H]6C[C@@H](C(=O)O)C6(C)C)C(C)(C)[C@@H]5CC[C@@]4(C)[C@]3(C)CC[C@@]2(C(=O)N(CCN(C)C)Cc2ccc(Cl)cc2)CC1=O [Example 14, (1R,3S)-3-((((3aR,5aR,5bR,7aR,9S,11aR,11bR,13aS)-3a-((4-chlorobenzyl)(2-(dimethylamino)ethyl)carbamoyl)-1-isopropyl-5a,5b,8,8,11a-pentamethyl-2-oxo-3,3a,4,5,5a,5b,6,7,7a,8,9,10,11,11a,11b,12,13,13a-octadecahydro-2H-cyclopenta[a]chrysen-9-yl)oxy)carbonyl)-2,2-dimethylcyclobutane-1-carboxylic acid]	1.72	9.83	100	100	100	166	9.64	91	12	12
CC(C)C1=C2[C@H]3CC[C@@H]4[C@@]5(C)CC[C@H](OC(=O)[C@H]6C[C@@H](C(=O)O)C6(C)C)C(C)(C)[C@@H]5CC[C@@]4(C)[C@]3(C)CC[C@@]2(C(=O)NC(C)(C)CO)CC1=O [Example 15, (1R,3S)-3-((((3aR,5aR,5bR,7aR,9S,11aR,11bR,13aS)-3a-((1-hydroxy-2-methylpropan-2-yl)carbamoyl)-1-isopropyl-5a,5b,8,8,11a-pentamethyl-2-oxo-3,3a,4,5,5a,5b,6,7,7a,8,9,10,11,11a,11b,12,13,13a-octadecahydro-2H-cyclopenta[a]chrysen-9-yl)oxy)carbonyl)-2,2-dimethylcyclobutane-1-carboxylic acid]	2.84	415	97	100	100	88.7	9.08	70	22	6
CC(C)C1=C2[C@H]3CC[C@@H]4[C@@]5(C)CC[C@H](OC(=O)[C@H]6C[C@@H](C(=O)O)C6(C)C)C(C)(C)[C@@H]5CC[C@@]4(C)[C@]3(C)CC[C@@]2(C(=O)N2CCCC2c2ncc(-c3ccccc3)[nH]2)CC1=O (stereo partly drawn) [Example 1, (1R,3S)-3-((((3aR,5aR,5bR,7aR,9S,11aR,11bR,13aS)-1-isopropyl-5a,5b,8,8,11a-pentamethyl-2-oxo-3a-((S)-2-(5-phenyl-1H-imidazol-2-yl)pyrrolidine-1-carbonyl)-3,3a,4,5,5a,5b,6,7,7a,8,9,10,11,11a,11b,12,13,13a-octadecahydro-2H-cyclopenta[a]chrysen-9-yl)oxy)carbonyl)-2,2-dimethlcyclobutane-1-carboxylic acid]	5.21	3.92	100	98	99	69.8	8.65	80	67	62
CC(C)C1=C2[C@H]3CC[C@@H]4[C@@]5(C)CC[C@H](OC(=O)[C@H]6C[C@@H](C(=O)O)C6(C)C)C(C)(C)[C@@H]5CC[C@@]4(C)[C@]3(C)CC[C@@]2(C(=O)N2CCC[C@H]2CN2CCC(F)(F)C2)CC1=O [Example 6, (1R,3S)-3-((((3aR,5aR,5bR,7aR,9S,11aR,11bR,13aS)-3a-((S)-2-((3,3-difluoropyrrolidin-1-yl)methyl)pyrrolidine-1-carbonyl)-1-isopropyl-5a,5b,8,8,11a-pentamethyl-2-oxo-3,3a,4,5,5a,5b,6,7,7a,8,9,10,11,11a,11b,12,13,13a-octadecahydro-2H-cyclopenta[a]chrysen-9-yl)oxy)carbonyl)-2,2-dimethylcyclobutane-1-carboxylic acid]	0.72	203	100	100	100	76.6	11.5	57	10	6
CC(C)C1=C2[C@H]3CC[C@@H]4[C@@]5(C)CC[C@H](OC(=O)[C@H]6C[C@@H](C(=O)O)C6(C)C)C(C)(C)[C@@H]5CC[C@@]4(C)[C@]3(C)CC[C@@]2(C(=O)N2CCC[C@H]2c2ncc(-c3ccc(F)cc3)[nH]2)CC1=O [Example 2, (1R,3S)-3-((((3aR,5aR,5bR,7aR,9S,11aR,11bR,13aS)-3a-((S)-2-(5-(4-fluorophenyl)-1H-imidazol-2-yl)pyrrolidine-1-carbonyl)-1-isopropyl-5a,5b,8,8,11a-pentamethyl-2-oxo-3,3a,4,5,5a,5b,6,7,7a,8,9,10,11,11a,11b,12,13,13a-octadecahydro-2H-cyclopenta[a]chrysen-9-yl)oxy)carbonyl)-2,2-dimethlcyclobutane-1-carboxylic acid]	3.89	51.2	60	100	100	148	11.9	100	100	90
CC(C)C1=C2[C@H]3CC[C@@H]4[C@@]5(C)CC[C@H](OC(=O)[C@H]6C[C@@H](C(=O)O)C6(C)C)C(C)(C)[C@@H]5CC[C@@]4(C)[C@]3(C)CC[C@@]2(C(=O)N2CCC[C@H]2c2ncc(-c3cccnc3)[nH]2)CC1=O [Example 3, (1R,3S)-3-((((3aR,5aR,5bR,7aR,9S,11aR,11bR,13aS)-1-isopropyl-5a,5b,8,8,11a-pentamethyl-2-oxo-3a-((S)-2-(5-(pyridin-3-yl)-1H-imidazol-2-yl)pyrrolidine-1-carbonyl)-3,3a,4,5,5a,5b,6,7,7a,8,9,10,11,11a,11b,12,13,13a-octadecahydro-2H-cyclopenta[a]chrysen-9-yl)oxy)carbonyl)-2,2-dimethlcyclobutane-1-carboxylic acid]	1.82	0.81	100	100	100	48.6	8.53	98	67	45
CC(C)C1=C2[C@H]3CC[C@@H]4[C@@]5(C)CC[C@H](OC(=O)[C@H]6C[C@@H](C(=O)O)C6(C)C)C(C)(C)[C@@H]5CC[C@@]4(C)[C@]3(C)CC[C@@]2(C(=O)NC(C)(C)CN2CCCC2)CC1=O [Example 12, (1R,3S)-3-((((3aR,5aR,5bR,7aR,9S,11aR,11bR,13aS)-1-isopropyl-5a,5b,8,8,11a-pentamethyl-3a-((2-methyl-1-(pyrrolidin-1-yl)propan-2-yl)carbamoyl)-2-oxo-3,3a,4,5,5a,5b,6,7,7a,8,9,10,11,11a,11b,12,13,13a-octadecahydro-2H-cyclopenta[a]chrysen-9-yl)oxy)carbonyl)-2,2-dimethlcyclobutane-1-carboxylic acid]	3.71	164	9	95	100	19	5.1	100	100	96
